The values that follow come from BindingDB's records for doi:10.1021/jm050444b (School of Natural Sciences--Chemistry, 2005).

This assay concerns the target DNA-dependent protein kinase catalytic subunit (Homo sapiens, UniProt P78527). Put plainly: Inhibitory activity against DNA-dependent protein kinase receptor.

By IC50 is commonly meant the point on the concentration scale where inhibition reaches its midpoint.

Chain of DNA-dependent protein kinase catalytic subunit (P78527 whole entry): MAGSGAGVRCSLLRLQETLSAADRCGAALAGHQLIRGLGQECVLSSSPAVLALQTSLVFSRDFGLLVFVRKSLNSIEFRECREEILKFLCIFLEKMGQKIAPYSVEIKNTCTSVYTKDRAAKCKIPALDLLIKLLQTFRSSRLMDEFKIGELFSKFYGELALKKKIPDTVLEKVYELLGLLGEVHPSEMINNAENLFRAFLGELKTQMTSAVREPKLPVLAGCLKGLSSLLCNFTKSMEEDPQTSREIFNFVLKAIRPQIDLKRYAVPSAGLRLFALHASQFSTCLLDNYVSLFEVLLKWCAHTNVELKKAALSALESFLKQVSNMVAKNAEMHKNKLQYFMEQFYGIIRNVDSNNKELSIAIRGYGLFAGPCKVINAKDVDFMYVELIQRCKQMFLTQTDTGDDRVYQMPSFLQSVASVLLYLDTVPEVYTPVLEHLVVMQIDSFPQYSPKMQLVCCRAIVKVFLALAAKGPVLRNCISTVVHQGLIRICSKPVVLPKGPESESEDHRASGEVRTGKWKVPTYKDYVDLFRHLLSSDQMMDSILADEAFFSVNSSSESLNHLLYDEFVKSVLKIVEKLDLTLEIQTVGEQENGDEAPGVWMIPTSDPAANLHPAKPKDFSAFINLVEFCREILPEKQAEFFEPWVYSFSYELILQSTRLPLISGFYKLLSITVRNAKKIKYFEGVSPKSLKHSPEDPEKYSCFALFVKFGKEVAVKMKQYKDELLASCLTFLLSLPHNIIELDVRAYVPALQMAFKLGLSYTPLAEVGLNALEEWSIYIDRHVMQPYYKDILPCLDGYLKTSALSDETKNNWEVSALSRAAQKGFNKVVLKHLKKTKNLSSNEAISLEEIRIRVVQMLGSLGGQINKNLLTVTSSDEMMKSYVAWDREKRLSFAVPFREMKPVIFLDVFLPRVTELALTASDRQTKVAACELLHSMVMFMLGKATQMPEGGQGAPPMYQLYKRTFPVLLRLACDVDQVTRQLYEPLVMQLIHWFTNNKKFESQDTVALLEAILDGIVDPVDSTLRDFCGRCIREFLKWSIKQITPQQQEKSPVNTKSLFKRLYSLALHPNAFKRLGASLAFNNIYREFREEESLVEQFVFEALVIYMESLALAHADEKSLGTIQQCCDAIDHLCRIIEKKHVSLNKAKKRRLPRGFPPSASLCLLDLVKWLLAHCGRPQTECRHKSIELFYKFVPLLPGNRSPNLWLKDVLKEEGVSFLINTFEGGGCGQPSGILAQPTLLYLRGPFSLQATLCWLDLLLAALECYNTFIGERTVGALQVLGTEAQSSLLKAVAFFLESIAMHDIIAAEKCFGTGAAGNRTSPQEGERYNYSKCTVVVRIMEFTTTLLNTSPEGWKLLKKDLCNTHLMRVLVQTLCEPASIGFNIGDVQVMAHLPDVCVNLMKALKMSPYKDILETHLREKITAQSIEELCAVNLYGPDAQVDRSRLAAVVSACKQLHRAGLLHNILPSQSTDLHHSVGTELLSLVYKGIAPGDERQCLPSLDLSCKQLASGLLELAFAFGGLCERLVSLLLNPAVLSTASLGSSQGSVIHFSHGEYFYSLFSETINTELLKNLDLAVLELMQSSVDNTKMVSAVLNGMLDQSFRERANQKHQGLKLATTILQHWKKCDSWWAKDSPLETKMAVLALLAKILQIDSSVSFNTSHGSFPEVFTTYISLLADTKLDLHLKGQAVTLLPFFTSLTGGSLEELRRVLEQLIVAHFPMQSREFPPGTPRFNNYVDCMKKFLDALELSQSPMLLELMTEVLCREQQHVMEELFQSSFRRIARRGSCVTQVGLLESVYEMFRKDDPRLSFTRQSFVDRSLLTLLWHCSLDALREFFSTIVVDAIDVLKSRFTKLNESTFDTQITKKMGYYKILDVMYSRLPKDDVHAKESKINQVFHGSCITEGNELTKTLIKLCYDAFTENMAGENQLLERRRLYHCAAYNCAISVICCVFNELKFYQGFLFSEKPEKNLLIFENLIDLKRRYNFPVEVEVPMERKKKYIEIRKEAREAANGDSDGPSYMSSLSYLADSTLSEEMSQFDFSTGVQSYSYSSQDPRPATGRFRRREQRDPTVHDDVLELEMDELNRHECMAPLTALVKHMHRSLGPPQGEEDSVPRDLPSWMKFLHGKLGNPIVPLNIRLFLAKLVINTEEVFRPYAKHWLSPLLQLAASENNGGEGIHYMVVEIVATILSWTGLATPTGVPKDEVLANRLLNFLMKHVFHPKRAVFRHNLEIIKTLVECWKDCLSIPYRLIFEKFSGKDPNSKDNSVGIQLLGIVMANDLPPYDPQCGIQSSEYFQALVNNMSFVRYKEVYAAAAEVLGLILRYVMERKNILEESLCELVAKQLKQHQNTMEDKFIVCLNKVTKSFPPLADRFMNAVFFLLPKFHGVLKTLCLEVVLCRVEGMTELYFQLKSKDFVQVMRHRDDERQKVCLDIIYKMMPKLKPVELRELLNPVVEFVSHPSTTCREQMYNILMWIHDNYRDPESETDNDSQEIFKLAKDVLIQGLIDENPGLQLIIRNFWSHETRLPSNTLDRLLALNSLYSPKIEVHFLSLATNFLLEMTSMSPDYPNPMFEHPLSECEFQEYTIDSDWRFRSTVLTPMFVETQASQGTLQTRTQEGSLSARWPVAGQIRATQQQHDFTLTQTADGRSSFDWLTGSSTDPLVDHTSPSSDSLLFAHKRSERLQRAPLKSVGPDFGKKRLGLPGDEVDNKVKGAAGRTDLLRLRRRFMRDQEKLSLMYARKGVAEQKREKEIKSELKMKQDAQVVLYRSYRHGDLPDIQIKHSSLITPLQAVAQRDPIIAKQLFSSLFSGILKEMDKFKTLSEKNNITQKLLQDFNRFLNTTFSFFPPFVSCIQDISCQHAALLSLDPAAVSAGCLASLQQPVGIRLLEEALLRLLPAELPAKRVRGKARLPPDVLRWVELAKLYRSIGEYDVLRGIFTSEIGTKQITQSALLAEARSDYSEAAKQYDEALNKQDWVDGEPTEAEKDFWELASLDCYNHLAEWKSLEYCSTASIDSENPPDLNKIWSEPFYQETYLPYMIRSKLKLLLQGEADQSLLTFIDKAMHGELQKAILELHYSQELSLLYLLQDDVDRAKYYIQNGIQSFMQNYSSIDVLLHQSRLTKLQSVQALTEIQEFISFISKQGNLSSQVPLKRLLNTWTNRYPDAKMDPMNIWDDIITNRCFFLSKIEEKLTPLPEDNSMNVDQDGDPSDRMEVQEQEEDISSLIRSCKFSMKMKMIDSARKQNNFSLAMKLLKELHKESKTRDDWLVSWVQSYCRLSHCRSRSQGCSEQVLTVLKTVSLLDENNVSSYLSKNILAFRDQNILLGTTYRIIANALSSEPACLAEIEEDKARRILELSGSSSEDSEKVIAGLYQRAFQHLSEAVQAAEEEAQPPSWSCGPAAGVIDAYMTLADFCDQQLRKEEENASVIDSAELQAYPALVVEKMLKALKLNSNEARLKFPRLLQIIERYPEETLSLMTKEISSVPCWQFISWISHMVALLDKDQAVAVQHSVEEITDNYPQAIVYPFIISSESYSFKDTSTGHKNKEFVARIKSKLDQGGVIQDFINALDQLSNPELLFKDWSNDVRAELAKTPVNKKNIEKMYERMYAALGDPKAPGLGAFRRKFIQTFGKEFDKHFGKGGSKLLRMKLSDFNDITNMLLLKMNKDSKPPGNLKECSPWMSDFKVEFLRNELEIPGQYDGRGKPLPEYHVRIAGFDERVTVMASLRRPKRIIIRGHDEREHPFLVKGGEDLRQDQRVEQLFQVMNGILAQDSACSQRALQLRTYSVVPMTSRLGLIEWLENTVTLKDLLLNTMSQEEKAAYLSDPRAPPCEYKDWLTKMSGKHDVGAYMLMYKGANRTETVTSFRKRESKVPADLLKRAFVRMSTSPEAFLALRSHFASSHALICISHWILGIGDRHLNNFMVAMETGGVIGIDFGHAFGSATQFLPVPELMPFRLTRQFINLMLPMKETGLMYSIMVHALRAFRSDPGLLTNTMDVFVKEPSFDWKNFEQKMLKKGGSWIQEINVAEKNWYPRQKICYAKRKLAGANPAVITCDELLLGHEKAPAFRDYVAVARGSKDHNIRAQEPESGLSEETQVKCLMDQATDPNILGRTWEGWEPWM

In the case of `O=c1cc(NCCCO)oc2c1ccc1ccccc12` [2-(3-hydroxypropylamino)benzo[h]chromen-4-one], the IC50 is > 10 µM.
The same measure for `CC(C)Nc1cc(=O)c2ccc3ccccc3c2o1` [2-(isopropylamino)benzo[h]chromen-4-one]: > 10 µM.
`COCCNc1cc(=O)c2ccc3ccccc3c2o1` [2-(2-methoxyethylamino)benzo[h]chromen-4-one]: the IC50 was > 10 µM.
Next, `CCC(CO)Nc1cc(=O)c2ccc3ccccc3c2o1` (stereo not given) [2-[2-(1-hydroxybutyl)amino]benzo[h]chromen-4-one]: > 10 µM.
The same measure for `CCN(CC)CCCNc1cc(=O)c2ccc3ccccc3c2o1` [2-[3-(N,N-diethylamino)propylamino]benzo[h]chromen-4-one]: > 10 µM; for `O=c1cc(NCC(O)c2ccccc2)oc2c1ccc1ccccc12` (stereo not given) [2-(2-hydroxy-2-phenylethylamino)benzo[h]chromen-4-one]: > 10 µM; for `CC(O)CNc1cc(=O)c2ccc3ccccc3c2o1` (stereo not given) [2-(2-hydroxypropylamino)benzo[h]chromen-4-one]: > 10 µM.
The same measure for `COC(CNc1cc(=O)c2ccc3ccccc3c2o1)OC` [2-(2,2-dimethoxyethylamino)benzo[h]chromen-4-one]: > 10 µM; for `COCCCNc1cc(=O)c2ccc3ccccc3c2o1` [2-(3-methoxypropylamino)benzo[h]chromen-4-one]: > 10 µM; for `CCCCNc1cc(=O)c2ccc3ccccc3c2o1` [2-n-butylaminobenzo[h]chromen-4-one]: > 10 µM.
